As usually defined, the MIC is the lowest concentration that inhibits growth of the organism.

Series [1] deals with Listeria monocytogenes. As to the kind of experiment: Antimicrobial activity against Listeria monocytogenes ATCC 19115 incubated for 24 hrs by microbroth dilution method. The format is functional. To be noted: ATCC 19115, 24 h. For orientation: Broth dilution looks for growth in wells or tubes with falling amounts of substance.
Series [2] deals with Staphylococcus aureus. Briefly: Antimicrobial activity against Staphylococcus aureus ATCC 9253 incubated for 24 hrs by microbroth dilution method. It counts as functional. The following applies: ATCC 9253, 24 h.
In series [3] the test system is Candida albicans. As to the kind of experiment: Antimicrobial activity against Candida albicans ATCC 10231 after 24 hrs by microbroth dilution method. The format is functional. The following applies: ATCC 10231, 24 h.
The subject of series [4] is Escherichia coli. Briefly: Antimicrobial activity against Escherichia coli NCTC 11954 incubated for 24 hrs by microbroth dilution method. It counts as functional. The following applies: NCTC 11954, 24 h.
The subject of series [5] is Aspergillus flavus. Briefly: Antimicrobial activity against Aspergillus flavus ATCC 9643 after 48 hrs by microbroth dilution method. The format is functional. To be noted: ATCC 9643, 48 h.
In series [6] the test system is Escherichia coli. As to the kind of experiment: Antimicrobial activity against Escherichia coli O157:H7 incubated for 24 hrs by microbroth dilution method. It counts as functional. The following applies: O157:H7, 24 h.
Series [7] deals with Stachybotrys chartarum. As to the kind of experiment: Antimicrobial activity against Stachybotrys chartarum IBT 7711 after 48 hrs by microbroth dilution method. It counts as functional. To be noted: IBT 7711, 48 h.
The subject of series [8] is Escherichia coli. Briefly: Antimicrobial activity against Escherichia coli ATCC 8739 incubated for 24 hrs by microbroth dilution method. It counts as functional. The following applies: ATCC 8739, 24 h.
Series [9] relates to Escherichia coli. Briefly: Antimicrobial activity against nalidixic acid-resistant Escherichia coli clinical isolate incubated for 24 hrs by microbroth dilution method. The format is functional.
Series [10] concerns Staphylococcus aureus. As to the kind of experiment: Antimicrobial activity against Staphylococcus aureus ATCC 33591 incubated for 24 hrs by microbroth dilution method. It counts as functional. The following applies: ATCC 33591, 24 h.
For series [11], the system named is Salmonella enterica. Briefly: Antimicrobial activity against Salmonella enterica ATCC 13312 incubated for 24 hrs by microbroth dilution method. The following applies: ATCC 13312, 24 h. It counts as functional.
In series [12] the test system is Pseudomonas aeruginosa. As to the kind of experiment: Antimicrobial activity against Pseudomonas aeruginosa ATCC 9627 incubated for 24 hrs by microbroth dilution method. The format is functional. To be noted: ATCC 9627, 24 h.
The test system of series [13] is Penicillium chrysogenum. Briefly: Antimicrobial activity against Penicillium chrysogenum ATCC 10106 after 48 hrs by microbroth dilution method. It counts as functional. The following applies: ATCC 10106, 48 h.
For series [14], the system named is Klebsiella pneumoniae. As to the kind of experiment: Antimicrobial activity against Klebsiella pneumoniae incubated overnight by broth microdilution method. The format is functional.
Series [15] relates to Staphylococcus aureus. Briefly: Antimicrobial activity against methicillin-resistant Staphylococcus aureus incubated overnight by broth microdilution method. The format is functional.
Series [16] deals with HL-60. As to the kind of experiment: Growth inhibition of human HL60 cells at 50 uM after 24 to 72 hrs by trypan blue staining based assay relative to control. The format is functional. To be noted: read-out: GI.
The test system of series [17] is B16. Briefly: Growth inhibition of mouse B16 cells at 50 uM after 24 to 72 hrs by trypan blue staining based assay relative to control. The format is functional. To be noted: read-out: GI.
The subject of series [18] is HeLa. As to the kind of experiment: Growth inhibition of human HeLa cells at 50 uM after 24 to 72 hrs by trypan blue staining based assay relative to control. The following applies: read-out: GI. The format is functional.
Series [19] is described as follows: Growth inhibition of mouse NIH/3T3 cells at 50 uM after 24 to 72 hrs by trypan blue staining based assay relative to control. It counts as cell-based, NIH3T3. To be noted: read-out: GI.
The subject of series [20] is Mycobacterium avium. As to the kind of experiment: Antimicrobial activity against Mycobacterium avium incubated for 10 days by microbroth dilution method. It counts as functional. The following applies: 240 h.
Series [21] has as its system Mycobacterium tuberculosis. Briefly: Antimicrobial activity against Mycobacterium tuberculosis H37Rv incubated for 10 days by microbroth dilution method. The format is functional. To be noted: 240 h.
Series [22] relates to Mycolicibacter terrae. Briefly: Antimicrobial activity against Mycobacterium terrae incubated for 10 days by microbroth dilution method. It counts as functional. To be noted: 240 h.

The structures appear in SMILES notation. ≈ marks a conversion by molar mass, not a printed value.

For the molecule `COc1c(N2CCN(C)CC2)c(F)cc2c(=O)c(C(=O)N[C@H]3[C@H](O)[C@@H](O)[C@H](CO)[C@H](O)[C@@H]3O)cn(C3CC3)c12`, the minimal inhibitory concentration (MIC) in series [1] was 636 µM (≈ 350 µg/mL); in [2], 159 µM (≈ 87.5 µg/mL); in series [3], less than 9.9 µM; in series [4], 159 µM (≈ 87.5 µg/mL); in series [5], 636 µM (≈ 350 µg/mL); in series [6] it was 39.7 µM (≈ 21.9 µg/mL). The minimum inhibitory concentration (MIC) in [7] was 636 µM (≈ 350 µg/mL); in [8], 318 µM (≈ 175 µg/mL); in series [9], 636 µM (≈ 350 µg/mL); in series [10], 159 µM (≈ 87.5 µg/mL); in series [11], 159 µM (≈ 87.5 µg/mL); in series [12], 19.9 µM (≈ 11 µg/mL).
With `COC[C@@H]1[C@H](OC(C)=O)[C@H](OC(C)=O)[C@@H](NC(=O)c2cn(C3CC3)c3c(OC)c(N4CCN(C)CC4)c(F)cc3c2=O)[C@H](OC(C)=O)[C@H]1OC(C)=O`, the MIC in series [1] was found to be 111 µM (≈ 81.6 µg/mL); in [2], 55.7 µM (≈ 40.8 µg/mL); in series [3] it was 223 µM (≈ 163 µg/mL); in [4], 111 µM (≈ 81.6 µg/mL); in [5], 55.7 µM (≈ 40.8 µg/mL); in [6], 55.7 µM (≈ 40.8 µg/mL). For the same molecule, the minimal inhibitory concentration (MIC) in series [7] was determined as 445 µM (≈ 326 µg/mL); in series [8], 445 µM (≈ 326 µg/mL); in [9], 445 µM (≈ 326 µg/mL); in series [10] it was 111 µM (≈ 81.6 µg/mL); in [13], 445 µM (≈ 326 µg/mL); in series [11], 890 µM (≈ 652 µg/mL). Moreover, in [12], inhibition of growth (MIC) required 111 µM (≈ 81.6 µg/mL).
As to `C[C@H]1Cn2cc(C(=O)NCCC(=O)NCCCCC[C@@H](N)C(=O)N[C@@H](CCCNC(=N)N)C(=O)N[C@@H](CCCNC(=N)N)C(=O)N[C@@H](CCCNC(=N)N)C(=O)N[C@@H](CCCNC(=N)N)C(=O)N[C@@H](Cc3c[nH]c4ccccc34)C(=O)N[C@@H](CCCNC(=N)N)C(=O)N[C@@H](Cc3c[nH]c4ccccc34)C(=O)N[C@@H](Cc3c[nH]c4ccccc34)C(=O)O)c(=O)c3cc(F)c(N4CCN(C)CC4)c(c32)O1`, the figures for the MIC in series [14] and in series [15] were more than 128 µg/mL and 64 µg/mL (≈ 33.4 µM), respectively.
In the case of `O=C(CSc1nnc(CN2CCN(c3cc4c(cc3F)c(=O)c(C(=O)O)cn4C3CC3)CC2)o1)c1ccc(Cl)cc1`, the inhibition of growth at 50 µM in series [16], in [17] and in series [18] was 100% each time. Besides, in series [19], the inhibition at 50 µM worked out at 100%.
For the molecule `C[C@H]1Cn2cc(C(=O)NCCC(=O)NCCC[C@@H]3NC(=O)[C@H](CCCNC(=N)N)NC(=O)[C@H](CCCNC(=N)N)NC(=O)[C@H](CCCNC(=N)N)NC(=O)[C@@H](Cc4c[nH]c5ccccc45)NC(=O)[C@H](Cc4c[nH]c5ccccc45)NC(=O)[C@H](Cc4c[nH]c5ccccc45)NC(=O)[C@H](Cc4c[nH]c5ccccc45)NC(=O)[C@H](CCCNC(=N)N)NC3=O)c(=O)c3cc(F)c(N4CCN(C)CC4)c(c32)O1`, the results for the MIC in [14] and in series [15] were more than 128 µg/mL and 32 µg/mL (≈ 16.9 µM), respectively.
Turning to `C[C@H]1Cn2cc(C(=O)NCCC(=O)NCCC[C@@H]3NC(=O)[C@H](CCCNC(=N)N)NC(=O)[C@H](CCCNC(=N)N)NC(=O)[C@H](CCCNC(=N)N)NC(=O)[C@@H](Cc4c[nH]c5ccccc45)NC(=O)[C@H](Cc4c[nH]c5ccccc45)NC(=O)[C@H](Cc4c[nH]c5ccccc45)NC(=O)[C@H](Cc4c[nH]c5ccccc45)NC(=O)[C@H](CCCNC(=N)N)NC3=O)c(=O)c3cc(F)c(F)c(c32)O1`, the MIC in series [14] turned out to be 32 µg/mL (≈ 17.6 µM); in [15] it was 8 µg/mL (≈ 4.4 µM).
Turning to `CCOc1cccc2cc(-c3cc4c(cc3F)c(=O)c(C(=O)O)cn4CC)c(=O)oc12`, the minimal inhibitory concentration (MIC) in series [20] was determined as 1.5 µg/mL (≈ 3.54 µM); in series [21], 1.5 µg/mL (≈ 3.54 µM); in [22], 0.7 µg/mL (≈ 1.65 µM).

The values above are taken from ChEMBL document CHEMBL4602605, “Fluoroquinolones structural and medicinal developments (2013-2018): Where are we now?” (Bioorg Med Chem, 2019).
